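Following 48 hours of exposure in 96-well plates, responses at five concentrations were used to interpolate endpoints linearly. Here, GI50 denotes the concentration required for 50% inhibition of growth.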 Activity calls are given as the source filed them. No stated cut-off is given here; in the data, active = GI50 up to about 1.1 µM and inactive = higher.
How the values were obtained:
Assay in all cases: inhibition of tumour cell growth, NCI panel, 48 h
TK-10 = tested on: TK-10
UACC-62 = tested on: UACC-62
SK-MEL-2 = tested on: SK-MEL-2
OVCAR-5 = tested on: OVCAR-5
EKVX = tested on: EKVX
MCF7 = tested on: MCF7
SNB-19 = tested on: SNB-19
SF-295 = tested on: SF-295
HOP-92 = tested on: HOP-92
CAKI-1 = tested on: CAKI-1
MOLT-4 = tested on: MOLT-4
HCC 2998 = tested on: HCC 2998
M14 = tested on: M14
SW-620 = tested on: SW-620
SF-539 = tested on: SF-539
OVCAR-3 = tested on: OVCAR-3
NCI-H226 = tested on: NCI-H226
HOP-62 = tested on: HOP-62
PC-3 = tested on: PC-3
COLO 205 = tested on: COLO 205

Measured: GI50

CCc1cccc(C(C)C)c1NC(=O)C(=O)C1C(=O)Nc2ccccc2[S+]1[O-] (centres undefined)
inactive: TK-10 > 100 µM | UACC-62 > 100 µM | SK-MEL-2 > 100 µM | OVCAR-5 > 100 µM | EKVX 57.8 µM | MCF7 > 100 µM | SNB-19 > 100 µM | SF-295 > 100 µM | HOP-92 > 100 µM | CAKI-1 > 100 µM | MOLT-4 > 100 µM | HCC 2998 > 100 µM | M14 > 100 µM | SW-620 > 100 µM | SF-539 > 100 µM | OVCAR-3 > 100 µM | NCI-H226 > 100 µM | HOP-62 > 100 µM | PC-3 > 100 µM | COLO 205 > 100 µM

Cc1ccc(C)n1-c1ccccc1C1C=Cn2c(=O)oc3c(OC(C)C)c(OC(C)C)c(O)c1c32 (centres undefined)
inactive: TK-10 55.2 µM | UACC-62 22.8 µM | SK-MEL-2 7.33 µM | OVCAR-5 > 100 µM | EKVX 23.1 µM | MCF7 16.6 µM | SNB-19 > 100 µM | SF-295 33.3 µM | HOP-92 24.9 µM | CAKI-1 22 µM | MOLT-4 6.84 µM | HCC 2998 8.57 µM | M14 22.9 µM | SW-620 11.4 µM | SF-539 > 100 µM | OVCAR-3 27.5 µM | NCI-H226 15.8 µM | HOP-62 73.5 µM | PC-3 5.11 µM | COLO 205 13.9 µM

O=C[C@@H](CO)O[C@H](C=O)c1c[nH]c(=O)[nH]c1=O
inactive: TK-10 104 µM | UACC-62 72.8 µM | SK-MEL-2 100 µM | OVCAR-5 131 µM | EKVX 75.7 µM | MCF7 45.2 µM | SNB-19 129 µM | SF-295 146 µM | HOP-92 81.1 µM | CAKI-1 71.6 µM | MOLT-4 47.8 µM | HCC 2998 98.4 µM | M14 126 µM | SW-620 62.8 µM | SF-539 101 µM | OVCAR-3 68.4 µM | NCI-H226 101 µM | HOP-62 59 µM | PC-3 89.1 µM | COLO 205 77.1 µM

NCC(=O)N1CCN(c2nc(N3CCCC3)c3nc(Cl)c(NCc4ccccc4)nc3n2)CC1
inactive: TK-10 1.9 µM | UACC-62 1.8 µM | SK-MEL-2 1.86 µM | OVCAR-5 2.91 µM | EKVX 1.87 µM | MCF7 1.83 µM | SNB-19 1.82 µM | SF-295 1.86 µM | HOP-92 1.45 µM | CAKI-1 2.44 µM | MOLT-4 1.12 µM | HCC 2998 1.66 µM | M14 1.72 µM | SW-620 2.66 µM | SF-539 1.99 µM | OVCAR-3 1.82 µM | NCI-H226 3.66 µM | HOP-62 1.56 µM | PC-3 2.48 µM | COLO 205 1.7 µM

COC12C=CC(CC1)C(C)(C)C2=O (centres undefined)
inactive: TK-10 > 100 µM | UACC-62 > 100 µM | SK-MEL-2 > 100 µM | OVCAR-5 > 100 µM | EKVX > 100 µM | MCF7 > 100 µM | SNB-19 > 100 µM | SF-295 > 100 µM | HOP-92 > 100 µM | CAKI-1 > 100 µM | MOLT-4 > 100 µM | HCC 2998 > 100 µM | M14 > 100 µM | SW-620 > 100 µM | SF-539 > 100 µM | OVCAR-3 > 100 µM | NCI-H226 > 100 µM | HOP-62 > 100 µM | PC-3 > 100 µM | COLO 205 > 100 µM

C=CCc1cc(C(Cc2ccccc2)NC(C)C)cc(OCc2ccccc2)c1OCc1ccccc1 (centres undefined)
inactive: TK-10 17.1 µM | UACC-62 15.1 µM | SK-MEL-2 18.6 µM | OVCAR-5 19.1 µM | EKVX 16.2 µM | MCF7 17.3 µM | SNB-19 15.3 µM | SF-295 17.8 µM | HOP-92 12.5 µM | CAKI-1 15.7 µM | MOLT-4 10.7 µM | HCC 2998 13.7 µM | M14 15.3 µM | SW-620 18.2 µM | SF-539 15.2 µM | OVCAR-3 16.7 µM | NCI-H226 17.7 µM | HOP-62 15.9 µM | PC-3 15.3 µM | COLO 205 17.3 µM

CSC(Cc1ccc2c(c1)Sc1ccccc1O2)=[N+]1CCOCC1
inactive: TK-10 > 100 µM | UACC-62 58.5 µM | SK-MEL-2 > 100 µM | OVCAR-5 > 100 µM | EKVX 58.1 µM | MCF7 40.2 µM | SNB-19 83.9 µM | SF-295 44.5 µM | HOP-92 48.5 µM | CAKI-1 > 100 µM | MOLT-4 35.7 µM | HCC 2998 91.8 µM | M14 72.9 µM | SW-620 > 100 µM | SF-539 74.6 µM | OVCAR-3 52.6 µM | NCI-H226 55.8 µM | HOP-62 > 100 µM | PC-3 44.7 µM | COLO 205 > 100 µM

N#Cc1c(-c2ccccc2)[nH]c2ccc(Cl)cc2c1=O
inactive: TK-10 29.7 µM | UACC-62 57.3 µM | SK-MEL-2 16.7 µM | OVCAR-5 > 100 µM | EKVX > 100 µM | MCF7 > 100 µM | SNB-19 22.9 µM | SF-295 22.4 µM | HOP-92 22.9 µM | CAKI-1 1.62 µM | MOLT-4 > 100 µM | HCC 2998 > 100 µM | M14 > 100 µM | SW-620 > 100 µM | SF-539 > 100 µM | OVCAR-3 > 100 µM | NCI-H226 38 µM | HOP-62 25.8 µM | PC-3 > 100 µM | COLO 205 > 100 µM

O=C1c2ccc(O)cc2OC(c2cc(O)c(O)c(O)c2)C1O (centres undefined) [DIHYDROBINETIN]
inactive: TK-10 23.6 µM | UACC-62 30.1 µM | SK-MEL-2 33.1 µM | OVCAR-5 58.2 µM | EKVX 19 µM | MCF7 25.7 µM | SNB-19 41.4 µM | SF-295 21.8 µM | HOP-92 > 100 µM | CAKI-1 53.8 µM | MOLT-4 19.1 µM | HCC 2998 31.6 µM | M14 > 100 µM | SW-620 25 µM | SF-539 21.5 µM | OVCAR-3 47.9 µM | NCI-H226 39.1 µM | HOP-62 35.5 µM | PC-3 > 100 µM | COLO 205 32.4 µM

CCOC(=O)C1(C(=O)OCC)[C@@H](c2ccccc2)C2=NO[C@@H]3CCC[C@H]1[C@H]23
inactive: TK-10 49.4 µM | UACC-62 8.26 µM | SK-MEL-2 55.5 µM | OVCAR-5 > 100 µM | EKVX 34.7 µM | MCF7 41.7 µM | SNB-19 > 100 µM | SF-295 51.6 µM | HOP-92 42.7 µM | CAKI-1 44.9 µM | MOLT-4 55.7 µM | HCC 2998 18 µM | M14 31.9 µM | SW-620 43.8 µM | SF-539 96.2 µM | OVCAR-3 27 µM | NCI-H226 78.5 µM | HOP-62 43.6 µM | PC-3 60.1 µM | COLO 205 29 µM

Cc1ccc(C)c(COCCOCn2c(=O)[nH]c(=O)c3cc(Br)ccc32)c1
inactive: TK-10 55.3 µM | UACC-62 53 µM | SK-MEL-2 > 100 µM | OVCAR-5 > 100 µM | EKVX > 100 µM | MCF7 > 100 µM | SNB-19 > 100 µM | SF-295 > 100 µM | HOP-92 > 100 µM | CAKI-1 81.1 µM | MOLT-4 > 100 µM | HCC 2998 > 100 µM | M14 > 100 µM | SW-620 > 100 µM | SF-539 99.3 µM | OVCAR-3 > 100 µM | NCI-H226 > 100 µM | HOP-62 41.7 µM | PC-3 > 100 µM | COLO 205 > 100 µM

Cc1cc(O)c2c(c1O)C(=O)c1c(O)ccc(O)c1C2=O [Cynodontin]
inactive: TK-10 > 100 µM | UACC-62 > 100 µM | SK-MEL-2 > 100 µM | OVCAR-5 > 100 µM | EKVX > 100 µM | MCF7 > 100 µM | SNB-19 > 100 µM | SF-295 > 100 µM | HOP-92 > 100 µM | CAKI-1 > 100 µM | MOLT-4 > 100 µM | HCC 2998 > 100 µM | M14 > 100 µM | SW-620 > 100 µM | SF-539 > 100 µM | OVCAR-3 > 100 µM | NCI-H226 > 100 µM | HOP-62 > 100 µM | PC-3 > 100 µM | COLO 205 > 100 µM

CC(=O)OC1=c2ccccc2=C(O)C2C1C=NN2C(C)=O (centres undefined)
inactive: TK-10 > 100 µM | UACC-62 > 100 µM | SK-MEL-2 > 100 µM | OVCAR-5 > 100 µM | EKVX 79.4 µM | MCF7 > 100 µM | SNB-19 > 100 µM | SF-295 > 100 µM | HOP-92 > 100 µM | CAKI-1 > 100 µM | MOLT-4 > 100 µM | HCC 2998 > 100 µM | M14 > 100 µM | SW-620 > 100 µM | SF-539 > 100 µM | OVCAR-3 > 100 µM | NCI-H226 > 100 µM | HOP-62 > 100 µM | PC-3 > 100 µM | COLO 205 95.3 µM

C=C1[C@@H]([C@@]2(C)C=CC(=O)C(C)(C)[C@@H]2CC(=O)OC)CC[C@@]2(C)[C@H](c3ccoc3)OC(=O)[C@H]3O[C@]132 [ANDIROBIN]
inactive: TK-10 > 100 µM | UACC-62 77.4 µM | SK-MEL-2 > 100 µM | OVCAR-5 > 100 µM | EKVX > 100 µM | MCF7 > 100 µM | SNB-19 > 100 µM | SF-295 87.5 µM | HOP-92 > 100 µM | CAKI-1 > 100 µM | MOLT-4 83.6 µM | HCC 2998 > 100 µM | M14 > 100 µM | SW-620 > 100 µM | SF-539 > 100 µM | OVCAR-3 > 100 µM | NCI-H226 > 100 µM | PC-3 40.7 µM | COLO 205 93.1 µM
